Measured values reported in paper PMC6721824, “IGFs Potentiate TAC3-induced SLα Expression via Upregulation of TACR3 Expression in Grass Carp Pituitary Cells” (Cells, 2019).
Peptide text beside a SMILES is read from it.

Assays:
MEK1/2 = assay: Western blot for signaling kinases: MEK1/2 phosphorylation; format: cell-based, grass carp (Ctenopharyngodon idellus); details: grass carp pituitary cells, senktide (1 µM) + IGF-I (50 nM), 15 min
Protocol: (§1) The pituitary cells derived from twenty grass carp pituitaries were seeded in 24-well culture plates at a density of 2.5 × 10^6 cells/mL/well and incubated with drug treatment for the duration as indicated in the individual experiments. […] After drug treatment, the culture medium from individual wells was removed and the remaining cells were rinsed with PBS and lysed in RIPA buffer (50 mM Tris^·HCl, 150 mM NaCl, 1 mM EDTA, 1% NP-40, and 0.25% Na deoxycholate), containing a final concentration of 1×protease/phosphatase inhibitor cocktail (Roche). The cell lysate was cleared by high-speed centrifugation at 4 °C, the clear supernatant was resolved in 10% gel by SDS-PAGE, and Western blotting was conducted according to the procedures as previously described. The antibodies that can be detected, the phosphorylated and total ERK1/2 (1:5,000), MEK1/2 (1:1,000), p38 MAPK (1:1,000), and Akt (1:1,000), were used at the dilutions recommended by the manufactures. […] Chemiluminescence signals for target immune-reactivity were detected using SuperSignal West Pico (PIERCE, Rockford, IL, USA) as the substrate and quantified using the IC440 CF Digital Science Image Station (Eastman Kodak, Rochester, NY, USA). […]

[1] = test system: SLα mRNA expression in grass carp pituitary cells; assay: SLα mRNA expression (qPCR) in grass carp pituitary cells; format: cell-based, grass carp (Ctenopharyngodon idellus); details: senktide 1 µM, IGF-I/-II 100 nM (Figure 4E)
Protocol: Grass carp pituitary cells prepared by the trypsin/DNase digestion method were seeded in 24-well plates at ~2.5 × 10^6 cells/mL/well. On the following day, drug treatment was initiated by replacing the old medium with a testing medium with the appropriate levels of test substances, and the cells were then allowed to incubate at 28 °C for the duration as indicated. After drug treatment, total RNA was extracted from individual wells and reversely transcribed as above. The RT samples obtained were subjected to qPCR using a LightCycler SYBR Green I Kit (Roche, Stockholm, Sweden) with the primers mentioned above. In these studies, serial dilutions of plasmid DNA containing the ORF of SLα (GeneBank no.: EF372074) and TACR3 (GenBank no: JQ254913) cDNA were used as the standards for data calibration. Parallel real-time PCR measurement of β-actin was also conducted in individual experiments to serve as the internal control.
For real-time PCR of SLα and TACR3 mRNA measurement, standard curves with a dynamic range of ≥10^5 and correlation coefficient of ≥0.95 were used for data calibration with the RotorGene-Q software 1.7 (Qiagen) under unsupervised mode. SLα and TACR3 mRNA data were normalized with the β-actin transcript level and then were transformed as a percentage of the mean value in the control group without drug treatment (as “%Ctrl”). For the calcium bioluminescence signals and raw data obtained from luciferase reporter assays, the luminescence signals or luciferase activity was expressed as “relative luminescence unit (RLU)” registered by the fluorescence plate reader. For individual samples of the luciferase reporter assay, the firefly luciferase activity detected was routinely normalized against Renilla Luciferase activity expressed in the same well and expressed as the luciferase activity ration (as “Luc Ratio”). For receptor binding assay, specific binding of FAM-NKBa was measured in terms of “Arbitrary Fluorescence Unit (AFU)”. The six replicates presented (expressed as Mean ± SEM) were pooled results from two individual experiments prior to statistical analysis; all data were tested for normality of distribution using the Shapiro–Wilk normality test. Then, one-way ANOVA and two-way ANOVA were used to test the significant difference according to different experiment groups. The differences between groups were considered as significant at P < 0.05 (“*”) or highly significant at P < 0.01 (“**”).

p38MAPK = assay: Western blot for signaling kinases: p38MAPK phosphorylation; format: cell-based, grass carp (Ctenopharyngodon idellus); details: grass carp pituitary cells, senktide (1 µM) + IGF-I (50 nM), 15 min
Protocol: as §1

grass carp TACR3 [2] = molecular target: T1, grass carp TACR3 (Ctenopharyngodon idella, UniProt A0A075BDW2); assay: CRE-Luc luciferase reporter (cAMP pathway) in HEK-293 cells with stable expression of grass carp TACR3; format: cell-based, grass carp (Ctenopharyngodon idellus); details: SEM
T1 sequence (A0A075BDW2 1-395): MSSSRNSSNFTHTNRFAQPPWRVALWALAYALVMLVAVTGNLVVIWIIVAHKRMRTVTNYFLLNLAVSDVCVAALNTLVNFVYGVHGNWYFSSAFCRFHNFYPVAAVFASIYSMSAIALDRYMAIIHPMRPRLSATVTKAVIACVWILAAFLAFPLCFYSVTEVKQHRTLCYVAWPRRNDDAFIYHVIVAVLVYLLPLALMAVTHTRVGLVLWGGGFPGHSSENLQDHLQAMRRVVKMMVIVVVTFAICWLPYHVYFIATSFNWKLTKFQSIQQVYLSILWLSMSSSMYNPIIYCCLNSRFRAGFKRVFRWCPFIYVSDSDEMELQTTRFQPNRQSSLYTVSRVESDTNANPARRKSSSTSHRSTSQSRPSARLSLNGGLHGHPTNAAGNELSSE
Protocol: To clarify the ligand selectivity and signal transduction pathways of TACR3, functional expression of grass carp TACR3 was performed in HEK-293 cells with co-transfection of luciferase-expressing reporters targeting different signaling pathways provided by the Clontech Cell Signaling Profiling Kit (Clontech, Mountain View, CA, USA), including cAMP response element (CRE)-Luc (for cAMP pathway), activator protein-1 (AP1)-Luc (for PKC pathway), nuclear factor of activated T-cells (NFAT)-Luc (for Ca^2+/calcineurin pathway), and serum responsive element (SRE)-Luc (for MAPK pathway) [29]. […]
For the calcium bioluminescence signals and raw data obtained from luciferase reporter assays, the luminescence signals or luciferase activity was expressed as “relative luminescence unit (RLU)” registered by the fluorescence plate reader. For individual samples of the luciferase reporter assay, the firefly luciferase activity detected was routinely normalized against Renilla Luciferase activity expressed in the same well and expressed as the luciferase activity ration (as “Luc Ratio”). […] The six replicates presented (expressed as Mean ± SEM) were pooled results from two individual experiments prior to statistical analysis; all data were tested for normality of distribution using the Shapiro–Wilk normality test. […]

grass carp TACR3 [3] = molecular target: T1, grass carp TACR3; assay: Fluorescence-based receptor binding assay, displacement of FAM-NKBa tracer; parameters: species or system grass carp (Ctenopharyngodon idellus); details: HEK-293 cells with stable expression of grass carp TACR3, 30 min pretreatment with competitor (0.1–1000 nM), then FAM-NKBa (10 nM) 30 min, 37 °C, fluorescence 490/520 nm; read-out: IC50 for displacing FAM-NKBa binding
Protocol: The cells were then harvested and seeded onto 24-well plates at a density of 0.1 million/well and incubated at 37 °C under 5% CO2 for 24 h prior to the experiments. On the day of the experiments, the culture medium was aspirated and replaced with 500 μL serum-free DMEM with or without appropriated levels of unlabeled competitors. Cells were then allowed to incubate for 30 min at 37 °C under 5% CO2 and saturated humidity. FAM Carboxyfluorescein-labeled NKBa, namely FAM-NKBa, was used as a tracer for receptor binding experiments, and a 50-μL volume of FAM-NKBa (10 nM) was added into individual wells. After further incubation for 30 min at 37 °C, the cells were washed twice and with 500 μl PBS each to remove unbound ligands. […] The supernatant from individual wells was then collected in a 96-wells black view plate, and fluorescence signals indicative of FAM-NKBa binding were registered using FluoStar OPTIMA with excitation at 490 nm and emission at 520 nm.
For receptor binding assay, specific binding of FAM-NKBa was measured in terms of “Arbitrary Fluorescence Unit (AFU)”. The six replicates presented (expressed as Mean ± SEM) were pooled results from two individual experiments prior to statistical analysis; all data were tested for normality of distribution using the Shapiro–Wilk normality test. […]

ERK1/2 = assay: Western blot for signaling kinases: ERK1/2 phosphorylation; format: cell-based, grass carp (Ctenopharyngodon idellus); details: grass carp pituitary cells, senktide (1 µM) + IGF-I (50 nM), 15 min
Protocol: as §1

Akt = assay: Western blot for signaling kinases: Akt phosphorylation; format: cell-based, grass carp (Ctenopharyngodon idellus); details: grass carp pituitary cells, senktide (1 µM) + IGF-I (50 nM), 15 min
Protocol: as §1

CSCC[C@H](NC(=O)[C@H](CC(C)C)NC(=O)CNC(=O)[C@H](Cc1ccccc1)N(C)C(=O)[C@H](Cc1ccccc1)NC(=O)[C@H](CC(=O)O)NC(=O)CCC(=O)O)C(N)=O [senktide] (HELM PEPTIDE1{[O=C(O)CCC(=O)[*:2]].D.F.[meF].G.L.M.[am]}$$$$V2.0; N-terminus and C-terminus assumed)
effect of cotreatment on IGF-I-induced protein phosphorylation of MEK1/2 (MEK1/2): did not alter | SLα mRNA expression on cotreatment of TACR3 agonist with IGF-I or IGF-II [1]: mimic the synergistic effects | effect of cotreatment on IGF-I-induced protein phosphorylation of p38MAPK (p38MAPK): did not alter | EC50 (grass carp TACR3 [2]): 21.3 ± 3.2 nM | IC50 (grass carp TACR3 [3]): 71.2 ± 9.23 nM | effect of cotreatment on IGF-I-induced protein phosphorylation of ERK1/2 (ERK1/2): did not alter | effect of cotreatment on IGF-I-induced protein phosphorylation of Akt (Akt): noticeable potentiating effect
